Earlier results, collected in patent US20210205417A1, “PH 7 INJECTABLE SOLUTION COMPRISING AT LEAST ONE BASAL INSULIN OF WHICH THE PI IS FROM 5.8 TO 8.5 AND A CO-POLYAMINO ACID BEARING CARBOXYLATE CHARGES AND HYDROPHOBIC RADICALS AND A LIMITED AMOUNT OF M-CRESOL” (ADOCIA, priority 2018, published 2021).

Settings: patients

For insulin glargine, the “period over which the hypoglycemic effect is almost constant” value is listed as 24 h.
